A short description of data set [1]: Turbidimetric solubility assay. As to the method:
A single phosphate buffered saline (PBS) tablet (Sigma Aldrich) was dissolved in 200 mL of distilled water (dH2O) (25 °C) to obtain a PBS solution with 0.01 M phosphate buffer, 0.14 M NaCl and 0.003 M KCl.
Stock solutions of the compounds to be tested were prepared in DMSO at a concentration of 10 mM and filtered through syringe filters. Serial dilution of the stock solutions with DMSO was then carried out in a preparatory (prep) 96-well plate giving concentrations between 0.00 and 10.0 mM (0.00, 0.25, 0.50, 1.0, 2.0, 4.0, 8.0 and 10 mM). The solutions were then further diluted into 96-well assay plates containing DMSO, PBS or HEPES buffer by pipetting 4.00 μL of solution from the prep plate to the Assay plate containing 196 μL of DMSO or buffer, giving final concentrations between 0.00 and 200 μM (0.00, 5.00, 10.0, 20.0, 40.0, 80.0, 160 and 200 μM). The assay plates were incubated at 25.0 or 37.0 °C for two hours before their UV-vis absorbance was read at 620 nm with a SPECTROstar Nano microplate reader spectrophotometer. Blank readings were used to gain corrected readings by subtracting them from obtained absorbances for each compound concentration.

Another data set relates to T. gondii. The data set can be described thus: Fluorescence microscopy of infected cells. The settings on record: 50 μM. The class given is cell-based, Toxoplasma gondii. The method, then:
To visualise the impact of the target compounds on the parasites, fluorescence microscopy was performed. Compound 17 was used as a representative for the two active compounds and was incubated with infected cells at a concentration of 50 μM for 24 and 48 hours. Fluorescence microscopy images were obtained at each of the timepoints (Fig. 5).
A 24 well plate of HFF host cells grown on cover slips was infected with 100 μL of parasites per well and incubated at 37 °C for 1 h. The media in the wells was aspirated and replaced with media containing 50 μM of 17 The plate was once again incubated for 24 or 48 h at 37 °C. Once incubation was complete, the cells were washed once with PBS, before fixation with 500 μL of 4% paraformaldehyde (PFA) at room temperature for 20 minutes. Cells were washed and 500 μL of blocking buffer (2% bovine serum albumin (BSA) in mL PBST (PBS, 0.2% Triton x-100 solution) and incubated for 20 min at room temperature. The cover slips were then carefully removed from each well, mounted using Fluoromount with DAPI (Southern Biotech), and placed facing down on a microscope slide. Images were obtained using a Leica DiM8 (Leica Microsystems) microscope and processed and deconvolved using SoftWoRx and FIJI software.

A further data set can be described thus: Cyclic voltammetry. In kind it is physicochemical. The source says:
Ferrocene is known to undergo reversible oxidation and reduction, cycling between its 3^+ ferrocenium and the 2^+ ferrocene (Fc) states.[49,50] This redox behaviour leads to the generation of reactive oxygen species (ROS) through Fenton like reactions, which can in turn lead to parasite death.[51–53] Cyclic voltammetry was used to determine if the synthesised ferrocenyl derivatives had the potential to have an impact on the redox status of the parasite cells. Two different scan rates (25 and 90 mV s^−1) were used to ensure the reliability of the results, compared to ferrocene alone.

Data set [2] is described as follows: Aqueous stability studies (UV-vis monitoring, ESI-MS follow-up). The class given is physicochemical. Particulars: PBS pH 7.4, HEPES pH 7.0 and acetate buffer pH 4.6; 37 °C, 18 hours, 50 μM. As to the method: The stability of complexes 14–17 in an aqueous environment was investigated. The stability experiments were performed in PBS (pH 7.4) and HEPES (pH 7.0) buffers, as well as in acidic acetate buffer (pH 4.6), by monitoring the UV-vis spectra of the compounds at 37 °C over an 18-hour period.
To further investigate the stability of 14, the PBS, HEPES and acetate buffer solutions were evaporated to dryness, and then analysed using electrospray ionisation mass spectrometry in the positive ionisation mode.
PBS and HEPES buffers were prepared as described above. An acetate buffer with a concentration of […] and a pH of 4.60 was prepared by dissolving 5.40 g (65.83 mmol) of sodium acetate in 50 mL of dH2O. The resulting solution was then titrated to a pH of 4.60 with glacial acetic acid and made up to 100 mL with dH2O.
1 mM stock solutions of the synthesised target compounds in MeOH were prepared. 1.90 mL of buffer (PBS, HEPES or acetate buffer) was pipetted into cuvettes followed by the addition 100 μL of test compound stock solutions, diluting them to a final concentration of 50 μM. The cuvettes were then stoppered, inverted to mix the solution, and placed in an Agilent Cary 3500 UV-vis spectrophotometer as fast as possible. Blank solutions in matched cuvettes were also prepared by adding 100 μL of MeOH to 1.9 mL of buffer. The solutions in all the cuvettes were stirred at 400 rpm ensure proper mixing. UV spectra were then recoded every 5 minutes for 18 hours with a spectral width of 200–1100 nm to monitor the stability of the test compounds.

The subject of the next data set is HEK293T cell line. Particulars: 25 μM, MTT 48 hours.

Where “and” joins values, the source holds several entries; their conditions need not be identical. Identical values can stand only once.

One compound from paper PMC11385693, “Synthesis of ferrocenyl benzimidazole derivatives as novel anti-Toxoplasma gondii agents” (New Journal of Chemistry, 2024) can be followed below.

Method for HEK293T cell line: Human prostatic epithelial cells (PNT1A) were cultured in Rosewell Park Memorial Institute (RPMI) media supplemented with 10% heat inactivated FBS. Both cell lines were incubated at 37 °C with 5% CO2. Both cell lines were obtained from ATCC.
The cells were allowed to recover overnight before the addition of compounds.
Stock solutions of the test compounds in DMSO were prepared and serially diluted in DMSO in a 96 well plate. […] 10 μL of the test compounds in media was then pipetted into the plates containing cells in triplicate. The cells were then incubated with the test compounds for 48 hours. After incubation, 10 μL of previously prepared MTT reagent was added to each well followed by incubation of the plates for 4 hours. 100 μL of solubilising agent was then pipetted into each well, and the plates incubated overnight. After overnight incubation the plates were read using a BioTek SYNERGY HTX multimode plate reader at 595 nm. Graphpad Prism 9 software was used to plot dose–response and determine cell viability.

For `O=C(NCCn1cnc2cccnc21)[c-]1cccc1.[Fe+2].c1cc[cH-]c1` [Compound 17], the Solubility range was 20-40 µM and 7-15 µg/mL in data set [1] (HEPES (pH 7.0), 25 °C); 0-5 µM and 0–2 µg/mL in data set [1] (HEPES (pH 7.0), 37 °C); 0-5 µM and 0-2 µg/mL in data set [1] (PBS (pH7.4), 25 °C); 5-10 µM and 2-4 µg/mL in data set [1] (PBS (pH7.4), 37 °C). In data set [1] (HEPES (pH 7.0), 37 °C), the Solubility class result was “poor (solubility <10 μg mL^−1 are considered to have poor solubility)”. Besides, the “Parasite plasma membrane integrity (fluorescence microscopy)” value in the data set with T. gondii (24 hours, leakage of fluorescent protein) was “damaged plasma membranes”. The “Daughter cell division of parasites that continued to grow (fluorescence microscopy)” value in the data set with T. gondii (48 hours) is “abnormal daughter cell division”. For the same compound, the “E 1/2” value in the data set “Cyclic voltammetry” (Run1, scan rate 25 mV s^−1) was determined as 620 mV; in the data set “Cyclic voltammetry” (Run2, scan rate 90 mV s^−1) it was 618 mV. Moreover, the ΔEp in “Cyclic voltammetry” (Run1, scan rate 25 mV s^−1) stood at 79 mV; in the data set “Cyclic voltammetry” (Run2, scan rate 90 mV s^−1), 68 mV. Besides, the “Change of UV-vis spectrum over time (aqueous stability)” value in data set [2] was “remained unchanged”. The “Cell survival / % cell viability” value in the data set with HEK293T cell line turned out to be 70%.
